Broadly, the melting point is the temperature, or range, at which the solid turns liquid.

For the molecule `NCC1Cc2cc(Cl)cc(-c3ccoc3)c2O1` (stereo not given), the melting point is > 250 °C.

`c1ccc(-c2cc3ncnc(Nc4ccc(NCc5c[nH]c6ccccc56)cc4)c3s2)cc1` displayed a melting point of 259 to 261 °C. For the molecule `CC(C)(C)Cc1nc2cc(S(=O)(=O)c3ccccc3)ccc2n1CC1CC1`, the melting point stood at 173 °C. In the case of `CN(CC1CCCCN1)C(=O)c1cc(OCC(F)(F)F)ccc1OCC(F)(F)F` (stereo not given), the melting point lay within 104 to 107 °C.

As to `Cc1ccc2c(c1O)NC(O)C1CCCN1C2=O` (stereo not given), the melting point fell in the range of 154 to 156 °C. Take `O=S(=O)(c1ccccc1)c1c[nH]c2cccc(CCO)c12`: the melting point was in the range of 55 to 60 °C. The molecule `OCc1cc2ccccc2c(-c2ccccc2)c1CO` displayed a melting point of 150 °C. Molecule `O=c1[nH]c2cccc(Cl)c2s1` returned a melting point of 202 to 203 °C. Turning to `O=C(O)COc1cc2ccsc2c(Cl)c1Cl`, the melting point lay in the range of 166 to 167 °C. The same measure for `CC(ON=C(C(=O)O)c1ccc(O)c(Cl)c1)C(=O)OC(C)(C)C` (stereo not given): 148 to 151 °C; for `COc1ccc(C(OCC2OC(n3cnc4c(N)nc(F)nc43)CC2O)(c2ccccc2)c2ccc(OC)cc2)cc1` (stereo not given): 239 to 243 °C. In turn, `CC(C)[C@H](CO)Cc1ccc(C(C)(C)C)cc1` displayed a melting point of 49 to 51 °C. Consider `CCC(=O)Oc1c(OC)c(OC)c(OC(C)=O)c2ccc(Cl)cc12`, for which the melting point lay within 86 to 87 °C. `CC1SC(=O)NN=C1c1cccc([N+](=O)[O-])c1` (stereo not given) came in with a melting point of 169 to 172 °C. In the case of `CCN1CCc2cc([N+](=O)[O-])ccc21`, the melting point was in the range of 97 to 98 °C. For `COC(Nc1ccccc1)(OC)c1ccnc(C(=O)c2ccc(Cl)cc2)c1`, the melting point lay in the range of 137 to 138 °C. As to `CN1N=C2c3cc(F)ccc3SCC2CC1=O` (stereo not given), the melting point lay in the range of 125 to 128 °C. In turn, `CC(C)COc1ccccc1Nc1ncc(C(=O)O)c(=O)[nH]1` showed a melting point of 213 to 215 °C. Regarding `ClCc1c(Cl)nnc(Cl)c1Cl`, the melting point fell in the range of 102 to 104 °C. The molecule `CN(C)C=Cc1cc(Cl)c([N+](=O)[O-])cc1Cl` yielded a melting point of 173 to 175 °C. Turning to `COC1=CC(=O)N([C@@H]2c3cc(C#N)ccc3OC(C)(C)[C@H]2O)C1` (relative stereo), the melting point came out at 225 °C.

`C=CCOc1ccc(C(=O)C=Cc2cccc(OC)c2OC)cc1` returned a melting point of 98 to 99 °C.

In the case of `Cc1ccc2c(c1)OCC(=O)N2`, the melting point is 197 °C. In turn, `Clc1cnc(Sc2cccs2)nc1` registered a melting point of 65 °C.

Turning to `O=C1C2CC(c3ccc([N+](=O)[O-])cc3)(C2)C(=O)N1Cc1ccccc1`, the melting point was 150 to 152 °C. `NC(=O)[C@@H]1CCCN1C(=O)CNC(=O)OCc1ccccc1` showed a melting point of 142 to 143 °C. In turn, `O=C(NCC1Cc2ccc3ccccc3c2O1)OCc1ccccc1` (stereo not given) had a melting point of 110 to 112 °C. Under `CCOC(=O)COc1ccccc1-c1cc(C#N)c(=O)[nH]c1C` stands 188 to 190 °C.

`CSC(SC)c1cnn(-c2c(Cl)cc(C(F)(F)F)cc2Cl)n1` displayed a melting point of 67 to 68 °C. As for `Cc1nc2cc3[nH]c(-c4ccncc4)nc3cc2s1`, the melting point is > 300 °C. For the molecule `NC(=O)NN=C1c2ncc(Cl)cc2C=CC1Cl` (stereo not given), the melting point was > 280 °C.

`COc1ccccc1NC(=O)Nc1nc(Oc2ccc3ccccc3c2)nc(N(CCC(=O)O)Cc2ccccc2C(F)(F)F)n1` came in with a melting point of 232 to 233 °C.

In turn, `Cc1cn(-c2ccc3nnc4c(C)nc(C5CCCCC5)n4c3c2)c(C2CCCCC2)n1` returned a melting point of 224 to 227 °C. `COc1cc(C)cc(OC)c1C1=NC(NC(=O)Nc2cccc(C)c2)C(=O)N(C)c2ccccc21` (stereo not given) registered a melting point of 260 °C.

With `O=c1cccccc1N1CCN(CCO)CC1`, the melting point lay within 85 to 86 °C. For the molecule `O=C1CCCc2cc(Sc3cccc(F)c3)cc(F)c21`, the melting point fell in the range of 126 to 127 °C. As to `CCOC(=O)c1cn(C)c2cc(-c3ccccc3)sc2c1=O`, the melting point fell in the range of 189 to 191 °C. `Cc1ccc(C2CC(N)=NN2c2nc3ccccc3s2)cc1` (stereo not given) gave a melting point of 282 to 285 °C. The same measure for `O=[N+]([O-])c1ccc(-c2nnn(Cc3ccccc3)n2)cc1`: 139 to 141 °C; for `CCCCCCCCc1ccc(CCC(CCOC(C)=O)(CCOC(C)=O)NC(C)=O)cc1`: 57 to 59 °C; for `Nc1n[nH]c2nc(C3CC3)cc(-c3ccc(Cl)c(Cl)c3)c12`: 256 to 258 °C. Under `Cc1ccccc1C(=O)CN1C(=O)C(NC(=O)Nc2cccc(C(=O)O)c2)N=C(c2ccccc2F)c2cccc(C)c21` (stereo not given) stands 168 to 176 °C; under `COC(=O)CCc1c(C(C)C)cc(C(C)C)cc1C(C)C`, 45 to 47 °C; under `CON=C(C)c1cc2c(Cl)cc(F)c(-n3c(=O)cc(C(F)(F)F)n(C)c3=O)c2o1`, 176 to 178 °C. `CCN1CCc2ccc(C(=O)CCC(=O)N3CCC(c4ccc(Cl)cc4)CC3)cc2CC1` registered a melting point of 156 to 157 °C. Under `O=C1C2=C(CCCC2)C(=O)C1=C1C=CNC=C1` stands 258 to 261 °C. `CC(=O)N[C@@H](CC(=O)c1ccc2oc3ccccc3c2c1)C(=O)O` showed a melting point of 166 to 170 °C. The same measure for `Nc1nc2cc(N)c(OC(F)(F)F)cc2s1`: 175 °C; for `CC(=O)N(C)c1cccc(-c2ccc(Cl)nn2)c1`: 118 to 120 °C.

Molecule `NC(=O)c1ccc(N2CCN(Cc3cn4cc(Cl)ccc4n3)CC2)cc1` displayed a melting point of 240 to 241 °C.

`NC(=O)[C@@H]1[C@H](Nc2nc(Nc3ccc4c(c3)CCC(NCC(F)F)CC4)ncc2Cl)[C@H]2C=C[C@@H]1C2` (stereo not given in full): the melting point amounted to 128 °C. For the molecule `C[C@@H](CN1C(=O)c2ccccc2C1=O)CC(F)(F)F`, the melting point fell in the range of 45 to 47 °C. Under `CCOc1nn(-c2ccc(C(F)(F)F)cn2)cc1CCCOc1ccc(OC)cc1CC(=O)O` stands 138 to 139 °C; under `CC1(N2Cc3c(N)cccc3C2=O)CCC(=O)NC1=O` (stereo not given), 289 to 292 °C; under `CCOCc1nc2c(N)nc3ccccc3c2n1CC(C)(C)OCCS(C)(=O)=O`, 183 to 185 °C. Molecule `O=C(O)CCc1cn(Cc2ccc(OCc3csc(-c4cccnc4)n3)cc2)cc1-c1ccccc1` registered a melting point of 118 to 119 °C.

In the case of `N#Cc1cccc(-c2nc(=O)c3ccccc3s2)c1`, the melting point was 200 °C. Turning to `COC(=O)c1cc2cc([N+](=O)[O-])c(OCc3ccccc3)cc2[nH]1`, the melting point was 184 to 187 °C. Under `CC(C)(C)OC(=O)COc1ccc(/C=C/C(=O)C(F)(F)F)cc1` stands 112 to 113 °C; under `Nc1n[nH]c2ncnc(Nc3cccc(Cl)c3)c12`, 232 to 234 °C.

Consider `O=c1[nH]c2c(I)c(Cl)c(Cl)c(I)c2[nH]c1=O`, for which the melting point lay within 353 to 354 °C.

Take `O=C(O)C(=O)c1ccc(OCCOc2ccc(Oc3ccccc3)cc2)cc1`: the melting point lay within 124 to 126 °C. Take `O=C(O)CCCCCCCCc1ccco1`: the melting point lay in the range of 31 to 32 °C. `O=c1ccc(-c2cc(F)c(OC3CCN(C4CCC4)CC3)c(F)c2)n[nH]1` registered a melting point of 195 to 197 °C. Take `CS(=O)(=O)c1cccc(Cc2cc3c(F)ccc(-c4cccc(C(=O)NCC(N)=O)c4)c3s2)c1`: the melting point is 107 to 108 °C. Under `CNC(=O)c1ccc(N2CCN(Cc3cc4c(c(OC)c3)OC(C)C(=O)N4)CC2)c(Cl)c1` (stereo not given) stands 200 to 203 °C; under `CCOC(=O)COc1ccc2c(C)c(CCN(CC)CC)c(=O)oc2c1Cl`, 147 to 148 °C; under `COC(=O)c1[nH]cnc1CCNC(=O)[C@H](Cc1ccccc1)NC(=O)[C@H](Cc1ccccc1)NC(=O)OC(C)(C)C`, 155 to 159 °C. Turning to `COC(=O)c1cc(-c2cccs2)cc(C)c1NS(=O)(=O)c1ccc(OC)cc1`, the melting point amounted to 91 °C. Molecule `O=C(NC1CCCCC1)NS(=O)(=O)c1ccc2c(c1)CCN(C(=O)N1CCCC1)CC2` had a melting point of 139 to 141 °C. The same measure for `Cc1cnc(CCCC#N)c(O)c1`: 132 °C; for `CC(C)OC(=O)c1cc(N)ccc1Cl`: 50.5 to 52 °C; for `O=C(CSCc1ccc2c(c1)OCO2)NO`: 127 to 128 °C. Turning to `Cc1cc(N(C)C)cc(C)c1NC(NCCCCCCCc1ccc(C(C)(C)C)cc1)=C1C(=O)COC1=O`, the melting point lay within 144 to 147 °C. As to `COc1cc2c(cc1-c1cccnc1)-c1c(-c3cncs3)c3c(n1CC2)C(=O)N(C(C)(C)C)CCCOC3`, the melting point fell in the range of 200 to 201 °C. The same measure for `CCn1cc(CC(=O)O)c(OCCCc2ccc(OCOC)cc2Oc2ccc(C(F)(F)F)cn2)n1`: 82 to 83 °C. In the case of `Cc1cc(N)n(-c2ccc(Cl)nn2)n1`, the melting point was in the range of 148 to 150 °C. `Clc1ccc(C2(CBr)OCC(COc3ccc4ccccc4c3)O2)c(Cl)c1` (stereo not given): the melting point amounted to 118 °C. In the case of `C/C=C/C(=O)NCCn1c(CCCC)nc2c(N)nc3cccnc3c21`, the melting point fell in the range of 198 to 200 °C. Molecule `O=[N+]([O-])c1cc(O)c(F)cc1Cl` gave a melting point of 85 to 86 °C.

In turn, `CC(COc1ccc2c(c1)CC/C(=C\c1cccs1)C2=O)n1ccnc1` (stereo not given) showed a melting point of 160 to 162 °C. For `CCC(C(=O)C(=O)O)c1ccccc1` (stereo not given), the melting point is 62 to 68 °C. Molecule `O=[N+]([O-])c1ccc(-c2nnc3ccc(Cl)nn23)s1` displayed a melting point of 215 to 217 °C.

As for `COc1ccc2c(=O)c3[nH]cc(C(=O)O)c(=O)c3oc2c1`, the melting point is 318 to 319 °C. `ON=C(Cc1cnccn1)c1ccc(Cl)cc1` had a melting point of 134 °C. The same measure for `CCN1C(C)CN(CC(=O)NC2(c3cc4ccccc4o3)C(=O)Nc3cc(Cl)cc(Cl)c32)CC1C` (single isomer, unassigned; (+)): 157 to 160 °C. As for `O=C(c1ccc2c(c1)C(=O)N1CCC[C@H]1CO2)N1CCCCC1`, the melting point was 140 °C. `CCNC(=O)C1Cc2c(n(C)c3ccc(OC)cc23)C1` (stereo not given) returned a melting point of 162 to 163 °C. In the case of `O=C(NC1CC1)c1cc(Nc2nc(N3CCC[C@H]3CO)nc3ccoc23)n[nH]1`, the melting point is 96.8 °C. `CC(C)(C)c1ccc(-c2cc(=O)cc(N3CCOCC3)o2)cc1` came in with a melting point of 156 °C.

The record behind these values is a melting point compilation (Tetko et al.; mined from patent text by program, amines drawn as free bases though some values may be those of a salt).
